# Source: patent publication US20110269782A1, “USE OF NMDA ACTIVITY ENHANCERS TO TREAT HYPERSOMNIA, REDUCED WAKEFULNESS OR REDUCED VIGILANCE” (priority 2008, published 2011)
# Experiments:
# rats = assay: Rat sleep parameters by EEG/EMG telemetry (WAKE, SWS, REM); format: in vivo
# Method: In the above experiment rats implanted with a two channel telemetry transmitter to record EEG and EMG simultaneously were dosed with either Merck 1 (nanosuspension 3 mg/kg; 5 ml/kg; p.o.) or vehicle (1.4% W/V hydroxypropylmethylcellulose 0.2% W/V sodium docusate; p.o.) at light on-set in a cross-over design. EEG and EMG recordings were collected for at least 12 hours. Data was converted with LoadDSI.s2s and BatchEEGpower2.s2s scripts (CED) and every 12 s epoch was automatically classified as either WAKE, SWS or REM (PS) sleep with Modulus analysis of sleep v7.xlt. Statistical analysis was done with Student's t-test for paired data. REM latency was defined as the first>1 min REM bout.
# Similar data is shown for D-amino acid oxidase inhibitor 4H-furo[3,2-b]pyrrole-5-carboxylic acid (Merck 2) in FIG. 3 and D-serine in FIG. 4 at 100 mg/kg. In this experiment rats implanted with a two channel telemetry transmitter to record EEG and EMG simultaneously were dosed with either drug (30, 100, 300 mg/kg d-serine or 25 mg/kg Merck 2) or vehicle (water or 0.5% MC) intraperitoneally at light on-set in a cross-over design. EEG and EMG recordings were collected for at least 12 hours. Data was converted with LoadDSI.s2s and BatchEEGpower2.s2 s scripts (CED) and every 12 s epoch was automatically classified as either WAKE, SWS or REM (PS) sleep with Modulus analysis of sleep v5 REM incl entries.XLT. Preliminary statistical analysis was done with Student's t-test for paired data. Significance level p<0.05.
# (§1) Rats implanted with a two channel telemetry transmitter to record EEG and EMG simultaneously were dosed acutely with either Merck 3 (5 mg/kg; i.p.) or vehicle (distilled water; i.p.) at light onset in a cross-over design. EEB and EMG recordings were collected for at least 12 hours. Data was converted with LoadDSI.s2s and BatchEEGpower2.s2s scripts (CED) and every 12 s epoch was automatically classified as either WAKE, SWS or REM (PS) sleep and Modulus analysis of sleep v7 REM incl entries and tot.xlt. Preliminary statistical analysis was done with Student's t-test for paired data. Significance level p<0.05.
# as §1, with “3 (25” for “3 (5”, “design. EEG” for “design. EEB”, “sleep with” for “sleep and”, “sleep v6” for “sleep v7”
# [1] = 30 mg/kg, cited from earlier work
# [2] = 25 mg/kg i.p., first four hours
smiles,measurement,setting,value
"O=C(NCC1(CC2CC2)CCC(S(=O)(=O)CC2CC2)CC1)c1ccc(Cl)cc1Cl (centres unmarked) [Merck 1, 2,4-dichloro-N-(4-cyclopropylmethane-sulfonyl-1-cyclopropylmethylcyclohexylmethyl)benzamide]",REM latency,rats; 3 mg/kg p.o.,significant increase
same,decrease in REM sleep (mean±SEM),"rats; 3 mg/kg p.o., significant",54±7%
same,decrease in the number of entries into REM,"rats; 3 mg/kg p.o., significant",45±9%
same,decrease in the number of entries into SWS,"rats; 3 mg/kg p.o., significant",26±8%
same,increase in time spent in WAKE,"rats; 3 mg/kg p.o., trend, p=0.06",93±43%
O=C(N[C@@H](c1ccccc1)[C@@H]1CCCCN1)c1cccc(C(F)(F)F)c1Cl [SSR504734],sleep parameters 24 h after drug challenge,[1]; 24 h after drug challenge,returned to control levels
same,duration of wakefulness,[1]; effect only for the first two hours,increased
same,latency time to onset of the first episode of PS,[1],increased latency time
same,paradoxical sleep (PS),[1],long-lasting reduction
"O=C(O)c1cc2sccc2[nH]1 [Merck 3, 4H-thieno[3,2-b]pyrrole-5-carboxylic acid]",latency to REM sleep,rats; 5 mg/kg i.p.,significantly increased
same,bout duration of SWS,"rats; 5 mg/kg i.p., 7 to 12 h time period",significantly reduced
same,time spent awake,"rats; 5 mg/kg i.p., first four hours after dosing",significantly increased
same,latency to REM,rats; 25 mg/kg i.p.,unaltered
same,latency to SWS,rats; 25 mg/kg i.p.,unaltered
same,wakefulness compared to the control,"rats; 25 mg/kg i.p., first 4 h",significantly more awake
same,time spent in REM,rats; [2],decrease
same,time spent in SWS,rats; [2],decrease
